# Results: patent US6197536A, “Methodology to produce, and purify and assay polypeptides with the proteolytic activity of the HCV NS3 protease” (priority 1995, dated 2001)
# Non-standard residues stand in square brackets, D forms with d. Residues, ends and D or L forms follow the SMILES beside them. No end group written: not given here. *: point of attachment. Dabcyl = CN(C)c1ccc(N=Nc2ccc(C(=O)*)cc2)cc1; EDANS = O=S(=O)(O)c1cccc2c(NCCN*)cccc12; AllylGly = C=CC[C@H](N)C(=O)O; Abu = CC[C@H](N)C(=O)O; Lac = C[C@H](O)C(=O)O
# How the values were obtained:
# [1] = system: HCV NS3 protease; settings: Example 4 amide substrate
# Procedure: (§1) Cleavage was detected by separating the substrate from the hydrolysis products by reverse-phase HPLC. For this purpose the mixture containing the buffer and the peptide incubated with the protease was injected into a reverse-phase Lichrospher RP-18 column (Merck) and eluted with an acetonitrile gradient containing 0.10% trifluoracetic acid. The cleavage products were identified by co-injection of appropriate standards, and by mass spectrometry. For these experiments, proteins produced by one of the methods described in examples 1 and 2 were used.
# (§2) Dependence of the activity on temperature was analysed by means of an Arrhenius plot in which the logarithm of the kinetic constant Kcat is given as an inverse function of temperature.
# [2] = system: NS3 protease + Pep4A; assay: Automatic assay using a radioactive amide substrate with anionic exchanger capture; assay type: biochemical, hepatitis C virus (HCV); settings: 3 hours at 23° C., 40 μM unlabeled peptide, 200 nM protease, 1 μM Pep4A
# Procedure: 400,000 cpm of the labelled peptide with a specific activity of 2-10 Ci/mmol. were incubated for 3 hours at 23° C. together with 40 μM (Km /2) of unlabeled peptide in the presence of 200 nM protease and 1 μM of Pep4A in 50 mM Tris pH 7.5, 50% glycerol, 3% CHAPS, 10 mM DTT. […] The fraction coming out of the exchanger is filtered, allowed to sediment or spun. The radioactivity is measured on the clear fraction, the amount of which is exclusively related to the right fragment (C-terminal), given that the amide substrate and the left hand fragment remain bound to the anionic exchanger. The addition of inhibitors causes a decrease in the release rate of the labelled cleaved fragment.
# [3] = target: T1, HCV protease (Hepatitis C virus genotype 1b, UniProt P26663); assay: Effect of chymostatin on HCV protease activity; assay type: biochemical; settings: 100 μg/ml used in homogenisation
# T1 construct: added initiator Met (ATG start codon) (N); made in house; host or cells: E. coli BL21(DE3)
# Procedure: 1. Homogenisation in the presence of 100 μg/ml of the chymostatin protease inhibitor. […] In this way it was possible to purify a single molecular species with more than 95% of form 2.
# [4] = target: T2, HCV NS3 protease (Hepatitis C virus genotype 1b, UniProt P26663); assay: Competitive inhibition of NS3 protease by decapeptides P6-P4' modified at position P1; assay type: biochemical
# T2 construct: The protein fragments contain variants of the protease domain of the HCV NS3 protein; added initiator Met (ATG start codon) (N); made in house
# Procedure: as §1, §2
# [5] = system: CC(=O)N[C@@H](CC(=O)O)C(=O)N[C@@H](CS)C(=O)N[C@@H](CO)C(=O)N[C@H](C(=O)N1CCC[C@H]1C(=O)N[C@@H](CS)C(=O)N[C@@H](CO)C(=O)NCC(=O)N[C@@H](CO)C(=O)N[C@@H](Cc1c[nH]c2ccccc12)C(=O)O)[C@@H](C)O; assay: HPLC assay of peptide substrate cleavage by purified NS3 protease in the presence of Pep4A; assay type: biochemical, hepatitis C virus (HCV); settings: other: Table 2, stoichiometric concentration, pH 7.5, 25.0 °C
# Excerpt: (§3) As mentioned above, the protein NS4A is a cofactor of HCV protease. N and C-terminal deletion experiments have defined the peptide Pep4A with the sequence indicated in SEQ ID NO:6, as the minimum domain still capable of inducing optimal activation. In transfection or in vitro translation experiments the addition of polypeptides containing the minimum NS4A sequence is essential to give effective cleavage. […] The kinetic characteristics of this activation are described below. Using a titration experiment a stoichiometry of 1:1 was determined for this interaction at a concentration of […] of protease, indicating a Kd<300 nM.
# (§4) These kinetics were obtained both in the absence and in the presence of stechiometric concentrations of Pep4A. […] When the Km values for the single substrates are compared it becomes evident that the presence of two negative charges in P5 and in P6 determined the bonding effectiveness of a peptide substrate.
# [6] = system: CSCC[C@H](NC(=O)[C@H](CCC(=O)O)NC(=O)[C@H](CC(=O)O)NC(C)=O)C(=O)N[C@@H](CCC(=O)O)C(=O)N[C@@H](CCC(=O)O)C(=O)N[C@@H](CS)C(=O)N[C@@H](C)C(=O)N[C@@H](CO)C(=O)N[C@@H](Cc1c[nH]cn1)C(=O)N[C@@H](CC(C)C)C(=O)O; assay: as above; assay type: biochemical, hepatitis C virus (HCV); settings: other: Table 2, stoichiometric concentration, pH 7.5, 25.0 °C
# Excerpt: as §3, §4
# [7] = system: CSCC[C@H](NC(=O)[C@H](CO)NC(=O)[C@H](CS)NC(=O)[C@H](CS)NC(=O)[C@@H](NC(=O)[C@@H](NC(=O)[C@H](CC(=O)O)NC(=O)[C@H](CCC(=O)O)NC(C)=O)C(C)C)C(C)C)C(=O)N[C@@H](CO)C(=O)N[C@@H](Cc1ccc(O)cc1)C(=O)O; assay: as above; assay type: biochemical, hepatitis C virus (HCV); settings: other: Table 2, stoichiometric concentration, pH 7.5, 25.0 °C
# Excerpt: as §3, §4
# [8] = target: T3, NS3 protease (Hepatitis C virus genotype 1b, UniProt P26663); assay type: biochemical, hepatitis C virus (HCV)
# T3 construct: The protein fragments contain variants of the protease domain of the HCV NS3 protein; added initiator Met (ATG start codon) (N); made in house
# Excerpt: Using the HPLC-based assay, the following kinetic parameters were obtained for the radioactive depsipeptide substrate S1 (SEQ ID NO:44):
# Synthesis of the radioactive depsipeptide substrates allows set-up of a high-throughput assay for determination of NS3 protease activity as schematically illustrated in FIG. 11. The principle is the following: both the intact substrate and the N-terminal fragment that originates from enzyme cleavage (Ac-Asp-Glu-Met-Glu-Glu-Abu-OH) (SEQ ID NO:49) are extremely acid, whereas the C-terminal fragment [HO-CH(CH3)CO-Ser-His-Leu-Pro-Tyr-Lys(N^ε -[^3 H]-CH3 CO)-NH2 ] (SEQ ID NO:50) is, according to pH, neutral or basic. It is therefore possible to capture the two acidic species on an anionic exchange resin, leaving the C-terminal fragment in solution. If the C-terminal fragment contains a radioactive marker (in this case the tritiated acetate covalently bonded to the ε-amino group of the C-terminal lysine), the resin will be able to discriminate processed substrate from non-processed substrate, thus making it possible to quantify proteolytic activity by measuring the amount of radioactivity remaining in solution after incubation with the enzyme and treatment with the ion exchanger. […]
# Purification to >98% homogeneity was achieved through preparative HPLC on a Nucleosyl C-18 column (250×21 mm, 7 μm) using as eluents (A) 50 mM ammonium acetate, pH 6 and (B) acetonitrile. […] The kinetic parameters for this substrate, evaluated through the HPLC-based assay (see FIG. 14A), were the following:
# The buffer used for the assay is the following: 33 mM DTT, 50 mM Tris, pH 7, 50% glycerol, 2% CHAPS. […] The assay can be run in a cuvette or in a (96-well) microtitre plate, monitoring the fluorescence as a function of time (Excitation wavelength […], Emission wavelength […]). The increase in fluorescence upon substrate cleavage is 13-fold. […]
# [9] = radioactive depsipeptide substrates, HPLC-based assay
# Chain of HCV NS3 protease (P26663 1039-1206 limits assumed): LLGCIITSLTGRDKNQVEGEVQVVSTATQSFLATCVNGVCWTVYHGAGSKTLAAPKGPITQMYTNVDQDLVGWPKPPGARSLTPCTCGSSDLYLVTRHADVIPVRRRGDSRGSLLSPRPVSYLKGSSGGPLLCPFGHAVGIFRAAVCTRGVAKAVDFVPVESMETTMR
# T2 sequence (P26663 1027-1208): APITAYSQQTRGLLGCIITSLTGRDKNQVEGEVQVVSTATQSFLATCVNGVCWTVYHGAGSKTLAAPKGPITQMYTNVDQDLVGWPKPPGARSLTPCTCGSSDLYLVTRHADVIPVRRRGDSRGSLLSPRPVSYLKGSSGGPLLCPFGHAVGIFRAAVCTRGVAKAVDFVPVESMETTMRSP
# T3 sequence (P26663 1027-1208): as above
# Chain of NS3 protease + Pep4A (P26663 1039-1206, other chains not shown): as the sequence (P26663 1039-1206 limits assumed) above
# T1 sequence (P26663 1027-1206): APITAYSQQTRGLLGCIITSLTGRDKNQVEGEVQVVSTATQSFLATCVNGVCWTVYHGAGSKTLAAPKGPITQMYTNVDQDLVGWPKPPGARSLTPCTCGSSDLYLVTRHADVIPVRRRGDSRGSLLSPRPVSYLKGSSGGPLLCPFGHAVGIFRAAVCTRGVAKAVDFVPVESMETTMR
molecule,measurement,setting,value
Ac-Asp-Glu-Met-Glu-Glu-Cys-Ala-Ser-His-Leu-Pro-Tyr-Lys-ε-(^3 H)Ac (XEMEECASHLPYX; N-acetyl; tritiated epsilon-acetyl) [SEQ ID NO:47],Km,[1],79 µM
same,kcat,[1],0.00817 s⁻¹
same,kcat /Km,[1],103 M⁻¹ s⁻¹
same,peptide substrate cleaved,[2],20%
CC(C)C[C@H](NC(=O)[C@@H](NC(=O)N[C@@H](Cc1ccccc1)C(=O)O)[C@@H]1CCN=C(N)N1)C(=O)N[C@H](C=O)Cc1ccccc1 [chymostatin],inhibition of HCV protease activity,[3],does not inhibit
Ac-DEMEEAASHL [Ala],Ki,[4],173 µM
HCV NS3 protease + Pep4A (NS4A cofactor peptide) (Hepatitis C virus (isolate BK)),Km,[5],320 µM
same,Km,[6],43 µM
same,kcat,[6],0.0233 s⁻¹
same,kcat/Km,[6],540 M⁻¹ s⁻¹
same,Km,[7],380 µM
same,kcat,[7],0.25 s⁻¹
same,kcat/Km,[7],650 M⁻¹ s⁻¹
Ac-DEMEEVASHL [Val],Ki,[4],173 µM
C=CC[C@H](NC(=O)[C@H](CCC(=O)O)NC(=O)[C@H](CCC(=O)O)NC(=O)[C@H](CCSC)NC(=O)[C@H](CCC(=O)O)NC(=O)[C@H](CC(=O)O)NC(C)=O)C(=O)N[C@@H](C)C(=O)N[C@@H](CO)C(=O)N[C@@H](Cc1c[nH]cn1)C(=O)N[C@@H](CC(C)C)C(=O)O [Alg] (Ac-DEMEE[AllylGly]ASHL-OH),Ki,[4],165 µM
Ac-Asp-Glu-Met-Glu-Glu-Abu-.psi.-[COO]-Ala-Ser-His-Leu-Pro-Tyr-Lys(N^ ε -[^3 H]-CH3 CO)-NH2 [SEQ ID NO:44],Km,[8]; [9],11 µM
same,kcat,[8]; [9],0.15 s⁻¹
"CC[C@H](NC(=O)[C@H](CCC(=O)O)NC(=O)[C@H](CCC(=O)O)NC(=O)[C@H](CC(=O)NCCNc1cccc2c(S(=O)(=O)O)cccc12)NC(=O)[C@H](CCC(=O)O)NC(=O)[C@H](CC(=O)O)NC(C)=O)C(=O)O[C@@H](C)C(=O)N[C@@H](CO)C(=O)N[C@@H](CCCCNC(=O)c1ccc(N=Nc2ccc(N(C)C)cc2)cc1)C(N)=O [S3, Ac-Asp-Glu-Asp-(EDANS)-Glu-Glu-Abu-.psi.[COO)-Ala-Ser-Lys-(DABCYL)NH2] (Ac-DED(EDANS)EE[Abu][Lac]SK(Dabcyl)-NH2)",kcat /Km,"[8]; fluorogenic depsipeptide, same buffer",5342 M⁻¹ s⁻¹
Ac-DEMEETASHL [Thr],Ki,[4],215 µM
CC[C@H](NC(=O)[C@H](CCC(=O)O)NC(=O)[C@H](CCC(=O)O)NC(=O)[C@H](CCSC)NC(=O)[C@H](CCC(=O)O)NC(=O)[C@H](CC(=O)O)NC(C)=O)C(=O)N[C@@H](C)C(=O)N[C@@H](CO)C(=O)N[C@@H](Cc1c[nH]cn1)C(=O)N[C@@H](CC(C)C)C(=O)O [Abu] (Ac-DEMEE[Abu]ASHL-OH),Ki,[4],175 µM
